From ChEMBL document CHEMBL1201862, “PubChem BioAssay data set” (2004)
Blank lines part the entries; values can stand above or below the compound they belong to. Active and inactive are the calls of the source.

Columns and labels:
[1] = target: Sphingosine 1-phosphate receptor 4 (Homo sapiens, UniProt O95977); experiment: Late-stage fluorescence-based dose-response cell-based counterscreen assay to identify agonists of the Sphingosine 1-Phosphate Receptor 3 (S1P3): Sphingosine 1-Phosphate Receptor 4 (S1P4) agonist assay.; type: functional
[2] = target: Sphingosine 1-phosphate receptor 2 (Homo sapiens, UniProt O95136); experiment: Late-stage fluorescence-based dose-response cell-based counterscreen assay to identify agonists of the Sphingosine 1-Phosphate Receptor 3 (S1P3): Sphingosine 1-Phosphate Receptor 2 (S1P2) agonist assay.; type: functional
Melanocortin receptor 4 = Melanocortin receptor 4 (Homo sapiens, UniProt P32245); experiment: inhibitors of MC4R cAMP signaling – cell-based, TR-FRET, biased antagonists, dose response (AID 602298); type: functional;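 further: antagonist potency against agonist-stimulated cAMP production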
[3] = cAMP pathway inhibition in counterscreen cell line – TR-FRET cAMP detection, counter-screen for MC4R biased antagonist project, dose response (AID 602305); type: functional, cell-based;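 further: U2OS cells stimulated with forskolin near its EC80 as the cAMP inducer; potency is for inhibition of forskolin-stimulated cAMP signaling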
Fatty acid synthase [4] = target: T1, Fatty acid synthase (Homo sapiens, UniProt P49327); experiment: inhibition of human FAS-TE enzyme activity – biochemical, kinetic fluorescence intensity, dose response (AID 624326); type: functional;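 further: rate of fluorescence rise from hydrolysis of a fluorogenic O-methyl fluorescein ester substrate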
T1 sequence (P49327 whole entry): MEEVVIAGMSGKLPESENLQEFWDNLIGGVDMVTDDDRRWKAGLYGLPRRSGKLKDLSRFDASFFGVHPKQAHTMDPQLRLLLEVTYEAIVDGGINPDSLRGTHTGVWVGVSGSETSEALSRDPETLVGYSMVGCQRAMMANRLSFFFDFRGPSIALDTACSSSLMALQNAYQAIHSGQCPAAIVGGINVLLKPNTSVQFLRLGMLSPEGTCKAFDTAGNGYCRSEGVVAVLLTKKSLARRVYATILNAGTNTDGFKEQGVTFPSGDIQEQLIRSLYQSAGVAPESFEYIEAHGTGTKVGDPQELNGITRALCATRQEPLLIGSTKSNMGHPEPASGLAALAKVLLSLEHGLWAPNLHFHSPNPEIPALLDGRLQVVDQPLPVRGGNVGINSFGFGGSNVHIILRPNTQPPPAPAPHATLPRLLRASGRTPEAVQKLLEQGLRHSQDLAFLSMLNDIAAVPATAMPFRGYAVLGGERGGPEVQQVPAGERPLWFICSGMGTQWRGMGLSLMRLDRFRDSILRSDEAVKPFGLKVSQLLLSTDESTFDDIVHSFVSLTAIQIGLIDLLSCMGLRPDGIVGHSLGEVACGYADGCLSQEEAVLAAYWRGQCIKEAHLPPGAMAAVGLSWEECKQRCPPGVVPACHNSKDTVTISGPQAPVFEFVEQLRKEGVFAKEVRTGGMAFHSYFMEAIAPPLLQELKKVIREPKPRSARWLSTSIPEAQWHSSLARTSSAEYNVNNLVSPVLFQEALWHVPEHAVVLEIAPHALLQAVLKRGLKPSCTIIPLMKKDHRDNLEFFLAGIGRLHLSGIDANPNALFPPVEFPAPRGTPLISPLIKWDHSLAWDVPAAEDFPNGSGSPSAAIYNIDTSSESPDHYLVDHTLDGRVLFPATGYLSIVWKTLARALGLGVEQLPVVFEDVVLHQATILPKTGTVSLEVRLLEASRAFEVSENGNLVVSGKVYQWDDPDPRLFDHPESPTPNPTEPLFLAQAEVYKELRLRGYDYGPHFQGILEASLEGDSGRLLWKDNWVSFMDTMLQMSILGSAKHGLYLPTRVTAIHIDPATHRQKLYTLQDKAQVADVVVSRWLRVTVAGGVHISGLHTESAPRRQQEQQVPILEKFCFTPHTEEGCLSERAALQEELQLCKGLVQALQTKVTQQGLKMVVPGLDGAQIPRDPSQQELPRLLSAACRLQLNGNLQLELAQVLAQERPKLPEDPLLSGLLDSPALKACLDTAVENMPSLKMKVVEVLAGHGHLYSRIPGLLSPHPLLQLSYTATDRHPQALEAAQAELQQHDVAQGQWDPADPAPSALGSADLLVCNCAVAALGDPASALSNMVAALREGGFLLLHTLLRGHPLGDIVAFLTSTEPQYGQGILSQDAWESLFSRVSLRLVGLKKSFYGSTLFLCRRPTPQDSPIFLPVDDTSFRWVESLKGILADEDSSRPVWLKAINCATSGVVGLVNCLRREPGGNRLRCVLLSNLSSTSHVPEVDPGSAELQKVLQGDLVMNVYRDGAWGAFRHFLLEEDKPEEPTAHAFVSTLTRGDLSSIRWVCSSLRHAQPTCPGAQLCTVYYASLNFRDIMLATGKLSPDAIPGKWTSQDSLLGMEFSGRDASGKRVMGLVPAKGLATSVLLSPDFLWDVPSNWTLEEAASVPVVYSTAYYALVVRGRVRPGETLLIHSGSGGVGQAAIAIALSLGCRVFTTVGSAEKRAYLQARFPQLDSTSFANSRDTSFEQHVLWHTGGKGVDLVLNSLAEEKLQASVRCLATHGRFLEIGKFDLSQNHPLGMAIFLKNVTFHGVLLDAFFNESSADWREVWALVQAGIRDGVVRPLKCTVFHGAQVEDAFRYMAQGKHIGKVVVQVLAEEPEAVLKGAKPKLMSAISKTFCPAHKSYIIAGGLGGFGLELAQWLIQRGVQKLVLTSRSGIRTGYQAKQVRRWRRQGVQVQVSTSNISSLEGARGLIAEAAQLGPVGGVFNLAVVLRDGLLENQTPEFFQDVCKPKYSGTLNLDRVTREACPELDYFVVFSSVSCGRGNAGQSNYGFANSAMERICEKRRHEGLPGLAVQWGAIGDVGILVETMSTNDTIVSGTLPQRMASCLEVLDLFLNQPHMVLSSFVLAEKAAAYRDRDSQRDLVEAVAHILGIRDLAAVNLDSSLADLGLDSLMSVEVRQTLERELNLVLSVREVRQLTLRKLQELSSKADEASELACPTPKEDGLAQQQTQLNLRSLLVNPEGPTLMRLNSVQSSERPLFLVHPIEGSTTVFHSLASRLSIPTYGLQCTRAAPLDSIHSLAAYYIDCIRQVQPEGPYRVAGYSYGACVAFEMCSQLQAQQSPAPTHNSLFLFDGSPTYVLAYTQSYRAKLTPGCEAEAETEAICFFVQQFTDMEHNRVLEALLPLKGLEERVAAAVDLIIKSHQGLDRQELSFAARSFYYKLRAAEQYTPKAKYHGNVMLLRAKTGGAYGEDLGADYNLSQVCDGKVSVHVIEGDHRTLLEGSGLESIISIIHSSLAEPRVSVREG

Fatty acid synthase [5] = target: T1, Fatty acid synthase; experiment: inhibition of human FAS-TE enzyme activity – biochemical, endpoint fluorescence intensity, uHTS hits, dose response (AID 624327); type: functional;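 further: fluorescence from hydrolysis of an O-methyl fluorescein acyl ester substrate by the enzyme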
[6] = target: T2, Sentrin-specific protease 6 (Homo sapiens, UniProt Q9GZR1); experiment: SAR Analysis of small molecule inhibitors of Sentrin-specific protease 6 (SENP6) using a Luminescent assay. [Related pubchem assays (depositor defined):AID2582, AID2599]; type: functional
T2 sequence (Q9GZR1 whole entry): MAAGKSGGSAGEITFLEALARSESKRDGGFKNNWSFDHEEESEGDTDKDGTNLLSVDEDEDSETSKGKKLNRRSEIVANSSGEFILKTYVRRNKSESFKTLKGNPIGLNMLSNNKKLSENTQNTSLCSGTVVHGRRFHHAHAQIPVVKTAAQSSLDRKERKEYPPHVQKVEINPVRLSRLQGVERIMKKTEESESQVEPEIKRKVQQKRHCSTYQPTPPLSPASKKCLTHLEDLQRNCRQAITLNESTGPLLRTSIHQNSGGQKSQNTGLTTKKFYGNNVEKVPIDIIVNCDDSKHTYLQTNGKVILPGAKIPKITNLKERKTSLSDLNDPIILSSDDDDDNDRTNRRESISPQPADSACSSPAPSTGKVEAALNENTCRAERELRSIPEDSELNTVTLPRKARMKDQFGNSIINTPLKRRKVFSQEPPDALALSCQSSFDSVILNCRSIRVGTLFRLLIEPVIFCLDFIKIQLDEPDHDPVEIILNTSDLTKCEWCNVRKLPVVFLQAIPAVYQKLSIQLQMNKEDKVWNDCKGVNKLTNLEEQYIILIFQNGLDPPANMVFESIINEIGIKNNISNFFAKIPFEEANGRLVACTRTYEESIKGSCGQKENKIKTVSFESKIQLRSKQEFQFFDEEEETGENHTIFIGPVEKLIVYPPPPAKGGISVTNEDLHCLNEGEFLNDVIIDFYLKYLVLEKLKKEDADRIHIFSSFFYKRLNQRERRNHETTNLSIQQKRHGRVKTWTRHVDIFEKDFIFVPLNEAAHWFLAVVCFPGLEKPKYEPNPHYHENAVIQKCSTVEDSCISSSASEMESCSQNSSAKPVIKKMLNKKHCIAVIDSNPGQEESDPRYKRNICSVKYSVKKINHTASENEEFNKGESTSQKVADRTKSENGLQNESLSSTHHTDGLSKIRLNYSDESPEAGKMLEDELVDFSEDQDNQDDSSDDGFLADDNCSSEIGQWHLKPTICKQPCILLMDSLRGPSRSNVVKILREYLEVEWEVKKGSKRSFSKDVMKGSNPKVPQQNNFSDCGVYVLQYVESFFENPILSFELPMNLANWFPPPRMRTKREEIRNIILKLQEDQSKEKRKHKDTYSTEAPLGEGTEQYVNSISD

[7] = target: T3, Sentrin-specific protease 8 (Homo sapiens, UniProt Q96LD8); experiment: inhibition of human SENP8 cleavage activity – biochemical, luminescence, SAR follow-up (AID 504501); type: functional
T3 sequence (Q96LD8 whole entry): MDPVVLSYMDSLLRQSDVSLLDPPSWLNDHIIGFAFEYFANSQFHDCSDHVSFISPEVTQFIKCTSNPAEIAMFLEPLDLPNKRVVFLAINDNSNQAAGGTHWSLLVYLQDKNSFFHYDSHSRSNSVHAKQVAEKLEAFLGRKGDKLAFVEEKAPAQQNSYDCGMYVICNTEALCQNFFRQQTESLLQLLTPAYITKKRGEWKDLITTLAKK

[8] = target: T2, Sentrin-specific protease 6; experiment: inhibition of human SENP6 catalytic domain – biochemical, luminescence, set 2, SAR follow-up (AID 588598); type: functional
[9] = target: T3, Sentrin-specific protease 8; experiment: inhibition of sentrin protease 8 – biochemical, luminescence, set 2, SAR follow-up (AID 588601); type: functional
Caspase-3 [10] = target: T4, Caspase-3 (Homo sapiens, UniProt P42574); experiment: inhibition of recombinant caspase-3 activity – biochemical, luminescence, set 2, selectivity assay for SENP protease inhibitor project, SAR follow-up (AID 588599); type: functional
T4 sequence (P42574 whole entry): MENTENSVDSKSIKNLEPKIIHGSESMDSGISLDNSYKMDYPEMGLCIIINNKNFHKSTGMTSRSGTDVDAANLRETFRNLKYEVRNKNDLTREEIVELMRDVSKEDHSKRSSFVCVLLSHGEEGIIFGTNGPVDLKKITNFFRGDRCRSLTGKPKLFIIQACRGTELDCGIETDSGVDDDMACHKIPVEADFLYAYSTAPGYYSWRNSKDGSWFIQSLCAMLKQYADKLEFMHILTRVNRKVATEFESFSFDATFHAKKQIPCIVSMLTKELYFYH

[11] = target: T5, Sentrin-specific protease 7 (Homo sapiens, UniProt Q9BQF6); experiment: inhibition of human SENP7 cleavage activity – biochemical, luminescence, set 2, SAR follow-up (AID 588600); type: functional
T5 sequence (Q9BQF6 whole entry): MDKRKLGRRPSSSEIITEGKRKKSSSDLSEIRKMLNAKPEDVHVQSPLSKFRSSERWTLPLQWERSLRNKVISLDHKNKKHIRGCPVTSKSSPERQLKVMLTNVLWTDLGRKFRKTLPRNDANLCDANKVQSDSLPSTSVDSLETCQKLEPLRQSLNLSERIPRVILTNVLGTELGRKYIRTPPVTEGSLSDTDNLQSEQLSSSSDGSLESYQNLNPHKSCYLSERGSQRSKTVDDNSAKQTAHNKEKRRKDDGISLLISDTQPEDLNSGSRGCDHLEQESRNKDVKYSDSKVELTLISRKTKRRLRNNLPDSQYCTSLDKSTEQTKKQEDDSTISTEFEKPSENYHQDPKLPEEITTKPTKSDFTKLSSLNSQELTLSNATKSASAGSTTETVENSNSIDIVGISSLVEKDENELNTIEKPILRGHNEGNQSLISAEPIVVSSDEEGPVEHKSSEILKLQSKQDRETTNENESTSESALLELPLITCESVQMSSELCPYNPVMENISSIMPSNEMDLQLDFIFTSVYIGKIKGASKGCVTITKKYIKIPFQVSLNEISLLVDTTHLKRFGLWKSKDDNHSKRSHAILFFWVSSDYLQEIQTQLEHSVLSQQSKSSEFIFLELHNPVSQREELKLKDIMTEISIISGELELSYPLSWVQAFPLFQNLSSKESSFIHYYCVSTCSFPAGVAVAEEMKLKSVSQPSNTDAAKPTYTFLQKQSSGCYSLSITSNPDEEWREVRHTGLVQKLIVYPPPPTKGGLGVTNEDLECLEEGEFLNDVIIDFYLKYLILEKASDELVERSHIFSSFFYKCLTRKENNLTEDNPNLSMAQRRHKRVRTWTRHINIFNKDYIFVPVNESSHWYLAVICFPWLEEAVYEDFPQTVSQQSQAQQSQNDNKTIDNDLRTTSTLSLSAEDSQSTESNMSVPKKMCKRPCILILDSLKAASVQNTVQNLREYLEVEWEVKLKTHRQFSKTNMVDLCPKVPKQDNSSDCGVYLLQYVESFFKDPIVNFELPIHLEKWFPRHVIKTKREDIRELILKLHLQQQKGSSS

[12] = target: T5, Sentrin-specific protease 7; experiment: inhibition of human SENP7 cleavage activity – biochemical, luminescence, SAR follow-up (AID 504497); type: functional
Caspase-3 [13] = target: T4, Caspase-3; experiment: SAR Analysis of small molecule inhibitors of Sentrin-specific proteases (SENPs) using a Caspase-3 Selectivity assay. [Related pubchem assays (depositor defined):AID2540, AID2599, AID434973, AID489001]; type: functional
[14] = target: Melanin-concentrating hormone receptor 1 (Homo sapiens, UniProt Q99705); experiment: Late-stage fluorescence-based counterscreen for antagonists of the G-protein coupled receptor 7 (GPR7): cell-based dose response assay to identify antagonists of the melanin-concentrating hormone receptor 1 (MCHR1) Set 5.; type: functional
Sequence of Melanin-concentrating hormone receptor 1 (Q99705 whole entry): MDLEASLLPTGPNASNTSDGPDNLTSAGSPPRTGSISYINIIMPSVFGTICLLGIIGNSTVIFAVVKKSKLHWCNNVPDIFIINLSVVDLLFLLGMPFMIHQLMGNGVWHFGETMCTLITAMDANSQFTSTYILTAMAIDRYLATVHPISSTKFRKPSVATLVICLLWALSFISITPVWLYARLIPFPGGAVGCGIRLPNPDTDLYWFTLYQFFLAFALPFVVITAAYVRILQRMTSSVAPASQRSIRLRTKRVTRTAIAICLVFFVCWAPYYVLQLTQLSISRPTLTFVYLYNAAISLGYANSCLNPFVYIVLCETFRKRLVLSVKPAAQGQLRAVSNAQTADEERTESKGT

[15] = target: Neuropeptides B/W receptor type 1 (Homo sapiens, UniProt P48145); experiment: human NPBW1 receptor blockade, IC50 – cell-based, fluorescence, dose response, set 5, late-stage follow-up (AID 588566); type: functional
[16] = target: Mitogen-activated protein kinase kinase kinase kinase 4 (Homo sapiens, UniProt O95819); type: functional
[17] = target: Dual specificity protein kinase CLK4 (Homo sapiens, UniProt Q9HAZ1); type: functional
[18] = target: MAP kinase-interacting serine/threonine-protein kinase 2 (Homo sapiens, UniProt Q9HBH9); type: functional
[19] = target: Mitogen-activated protein kinase kinase kinase kinase 5 (Homo sapiens, UniProt Q9Y4K4); type: functional;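 further: measured as one member of a kinome-spanning kinase panel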
[20] = target: Serine/threonine-protein kinase PAK 1 (Homo sapiens, UniProt Q13153); type: functional
Sequence of Serine/threonine-protein kinase PAK 1 (Q13153 whole entry): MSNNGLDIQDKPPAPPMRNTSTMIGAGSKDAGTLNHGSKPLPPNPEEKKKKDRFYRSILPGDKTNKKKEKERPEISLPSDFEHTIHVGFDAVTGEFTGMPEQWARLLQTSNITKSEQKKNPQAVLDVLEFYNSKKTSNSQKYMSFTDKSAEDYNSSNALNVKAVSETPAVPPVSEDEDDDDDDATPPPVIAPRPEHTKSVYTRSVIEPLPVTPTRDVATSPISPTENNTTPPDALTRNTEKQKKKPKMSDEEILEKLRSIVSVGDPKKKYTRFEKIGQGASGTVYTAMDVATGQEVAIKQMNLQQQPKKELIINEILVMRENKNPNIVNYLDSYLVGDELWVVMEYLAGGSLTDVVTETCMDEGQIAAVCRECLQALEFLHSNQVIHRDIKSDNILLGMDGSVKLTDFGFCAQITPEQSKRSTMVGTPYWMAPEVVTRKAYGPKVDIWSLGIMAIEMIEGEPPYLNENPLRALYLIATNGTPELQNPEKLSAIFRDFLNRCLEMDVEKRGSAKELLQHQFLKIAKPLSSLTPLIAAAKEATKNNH

[21] = target: Interleukin-1 receptor-associated kinase 4 (Homo sapiens, UniProt Q9NWZ3); type: functional
Sequence of Interleukin-1 receptor-associated kinase 4 (Q9NWZ3 whole entry): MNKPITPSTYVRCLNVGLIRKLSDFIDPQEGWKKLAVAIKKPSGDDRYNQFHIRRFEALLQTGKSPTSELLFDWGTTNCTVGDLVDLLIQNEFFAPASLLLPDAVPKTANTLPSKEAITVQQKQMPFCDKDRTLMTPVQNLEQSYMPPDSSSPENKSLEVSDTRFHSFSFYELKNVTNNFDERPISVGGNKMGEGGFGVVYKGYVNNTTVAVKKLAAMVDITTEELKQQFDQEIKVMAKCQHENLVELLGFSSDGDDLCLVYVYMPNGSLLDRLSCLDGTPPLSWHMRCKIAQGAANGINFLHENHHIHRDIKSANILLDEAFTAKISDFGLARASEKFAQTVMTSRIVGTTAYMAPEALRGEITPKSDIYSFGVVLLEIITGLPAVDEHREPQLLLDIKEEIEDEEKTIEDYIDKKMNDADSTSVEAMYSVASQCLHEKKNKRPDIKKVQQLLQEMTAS

HEK293 [22] = experiment: optical interference in Abeta FP readout, dose response, artefact control for IDE activator project, biochemical, fluorescence polarization (AID 588442); type: functional, cell-based; settings: Homo sapiens
HEK293 [23] = experiment: membrane integrity loss in HEK cells – cell-based, fluorescence, cytotoxicity control for IDE activator project, dose response (AID 588440); type: functional; settings: Homo sapiens;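 further: cytotoxicity by LDH release measuring loss of membrane integrity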
CHO = CHO cell viability loss, potency – luminescence, cytotoxicity control for TLR9-MyD88 binding inhibitor project, dose response (AID 588339); type: functional, cell-based, hamster; settings: Cricetulus griseus;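 further: CHO cells stably coexpressing TLR9 and MyD88 fusions from primary screen; compound exposure lasted 48 hours before viability readout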
Insulin-degrading enzyme [24] = target: T6, Insulin-degrading enzyme (Homo sapiens, UniProt P14735); experiment: cellular IDE activation of Abeta substrate cleavage – fluorescence polarization, HEK cells, dose response (AID 588439); type: functional, cell-based
T6 sequence (P14735 whole entry): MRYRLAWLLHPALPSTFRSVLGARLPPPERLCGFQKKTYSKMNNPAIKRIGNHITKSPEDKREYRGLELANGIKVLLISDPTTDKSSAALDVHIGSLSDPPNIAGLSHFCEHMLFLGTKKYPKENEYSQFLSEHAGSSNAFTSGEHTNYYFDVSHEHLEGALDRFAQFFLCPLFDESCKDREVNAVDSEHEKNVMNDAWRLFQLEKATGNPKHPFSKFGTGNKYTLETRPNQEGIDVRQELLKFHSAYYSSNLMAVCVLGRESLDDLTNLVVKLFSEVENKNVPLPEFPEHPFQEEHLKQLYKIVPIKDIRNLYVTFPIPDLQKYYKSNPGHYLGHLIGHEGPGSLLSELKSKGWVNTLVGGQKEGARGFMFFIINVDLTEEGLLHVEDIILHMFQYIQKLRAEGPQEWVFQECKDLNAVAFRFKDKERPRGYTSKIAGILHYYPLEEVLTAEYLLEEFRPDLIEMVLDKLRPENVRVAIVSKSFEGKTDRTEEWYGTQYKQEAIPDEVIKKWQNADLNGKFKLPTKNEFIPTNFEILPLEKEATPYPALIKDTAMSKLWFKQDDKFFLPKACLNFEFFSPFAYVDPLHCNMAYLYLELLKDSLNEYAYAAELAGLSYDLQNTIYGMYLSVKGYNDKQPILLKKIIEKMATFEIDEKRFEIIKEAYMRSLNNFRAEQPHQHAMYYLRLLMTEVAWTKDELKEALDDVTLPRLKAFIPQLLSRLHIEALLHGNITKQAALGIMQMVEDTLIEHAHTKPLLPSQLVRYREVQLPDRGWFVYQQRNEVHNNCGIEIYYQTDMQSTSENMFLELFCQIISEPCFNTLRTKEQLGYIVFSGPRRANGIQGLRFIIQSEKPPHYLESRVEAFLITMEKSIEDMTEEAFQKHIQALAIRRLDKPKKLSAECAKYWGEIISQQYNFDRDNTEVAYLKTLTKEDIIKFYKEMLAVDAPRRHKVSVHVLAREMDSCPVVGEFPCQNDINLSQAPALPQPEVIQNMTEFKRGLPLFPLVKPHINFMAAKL

[25] = Luminescence Cell-Based Dose Retest to Confirm Inhibitors of Cancer Stem Cells. [Related pubchem assays (depositor defined):AID2717, AID2721]; type: functional; settings: Homo sapiens
Beta Lactamase = Beta Lactamase (Pseudomonas aeruginosa, UniProt Q932Y6); experiment: BLA reporter interference, concentration series – BLA reporter cells, FRET fluorescence, artefact control for TLR9-MyD88 binding inhibitor project, dose response (AID 588341); type: cell-based;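 further: cell based assay in CHO-K1 cells stably expressing beta-lactamase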
Insulin-degrading enzyme [26] = target: T6, Insulin-degrading enzyme; experiment: recombinant IDE activation, cell-free – biochemical, fluorescence polarization, counter-screen for IDE activator project, dose response (AID 588681)
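Wherever AC50 is given: cells exposed to compound for roughly 70 hours or longer before luminescence read.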

IC50 [6]: 3.5 µM (active)
IC50 [8]: 3.02 µM (active)
IC50 (Caspase-3 [10]): 3.68 µM (active)
IC50 [11]: 2.7 µM (active)
IC50 [12]: 2 µM (active)
IC50 (Caspase-3 [13]): 3.6 µM (active)
SMILES: O=C(Nc1nc2c(F)cccc2s1)c1cccs1
IC50 [7]: 4.1 µM (active)
IC50 [9]: 2.66 µM (active)

IC50 [14]: 0.804 µM (active)
IC50 [15]: 2.55 µM (active)
SMILES: CCOc1ccc(Oc2c(S(C)(=O)=O)cnn(Cc3cccc4ccccc34)c2=O)cc1

Ki [16]: 1.26 µM (active)
Ki [17]: 3.98 µM (active)
Ki [18]: 6.31 µM (active)
Ki [19]: 1 µM (active)
Ki [20]: > 10 µM (inactive)
Ki [21]: > 10 µM (inactive)
SMILES: CC(=O)c1cccc(-c2cnc3ccccc3c2)c1

Continued, compound first:

SMILES: CCCc1cc(C(=O)NC2CCCCC2)no1
EC50 [1]: > 50 µM (inactive)
EC50 [2]: > 50 µM (inactive)

SMILES: O=C(Oc1ccccc1C(=O)Nc1ccccc1)c1ccc(Br)c([N+](=O)[O-])c1
IC50 (Melanocortin receptor 4): > 64.6 µM (inactive)
IC50 [3]: > 64.6 µM (inactive)
IC50 (Fatty acid synthase [4]): 5.97 µM (active)
IC50 (Fatty acid synthase [5]): 4.66 µM (active)

SMILES: CCCCCCSc1cc(-c2nc3cnccn3c2NCCCC)ccc1OC
EC50 (HEK293 [22]): > 56 µM (inactive)
IC50 (HEK293 [23]): 33.6 µM (inactive)
IC50 (CHO): 21.2 µM (inactive)
EC50 (Insulin-degrading enzyme [24]): 13.9 µM (inactive)
AC50 [25]: 4.56 µM (active)
IC50 (Beta Lactamase): 7.42 µM (active)
EC50 (Insulin-degrading enzyme [26]): > 54.7 µM (inactive)
